Assay [1] has as its system Eretmocerus eremicus. Kind of assay: Toxicity in Eretmocerus eremicus infested cucumber leaves assessed as mortality at recommended rate after 15 days under green house condition (reference value: 30%). It is filed as functional, organism-based.
For assay [2], the system named is Amblyseius swirskii. Kind of assay: Toxicity in Typhlodromips swirskii infested green bean leaves assessed as mortality at recommended rate at 48 hr by leaf dip method (reference value: 10%). It is filed as functional.
Assay [3] has as its system Eretmocerus eremicus. Kind of assay: Toxicity in Eretmocerus eremicus infested green bean leaves assessed as mortality at 2 times of recommended rate at 48 hr by leaf dip method (reference value: 10%). In kind it is functional.
Assay [4] relates to Eretmocerus eremicus. Kind of assay: Toxicity in Eretmocerus eremicus infested green bean leaves assessed as mortality at recommended rate at 48 hr by leaf dip method (reference value: 10%). In kind it is functional.
Assay [5] relates to Amblyseius swirskii. Kind of assay: Toxicity in Typhlodromips swirskii infested green bean leaves assessed as mortality at 2 times recommended rate at 48 hr by leaf dip method (reference value: 10%). In kind it is functional.
Assay [6] deals with Orius insidiosus. Kind of assay: Toxicity in Orius insidiosus infested green bean leaves assessed as mortality at recommended rate at 48 hr by leaf dip method (reference value: 20%). It is filed as functional.
Assay [7] has as its system Orius insidiosus. Kind of assay: Toxicity in Orius insidiosus infested green bean leaves assessed as mortality at 2 times recommended rate at 48 hr by leaf dip method (reference value: 20%). In kind it is functional.

For METAFLUMIZONE, the mortality (in general, the share of the test organisms that died) is 4.4% in assay [1]; 14.5% in assay [2]; 0% in assay [3]; 0% in assay [4]; 8.8% in assay [5]; 69% in assay [6].

For the compound `O=C([O-])O.[K+]` [POTASSIUM BICARBONATE], the mortality in assay [2] is 19.8%; in assay [3] it was 2.5%; in assay [4], 2.5%; in assay [5] it was 8.8%.

`CNC(=O)c1cc(Cl)cc(C)c1NC(=O)c1cc(Br)nn1-c1ncccc1Cl` [CHLORANTRANILIPROLE]: the mortality in assay [2] stood at 15.8%; in assay [3], 0%; in assay [4], 0%; in assay [5], 14.3%; in assay [6], 8%; in assay [7] it was 16%.

Turning to `CCCCC(C#N)(Cn1cncn1)c1ccc(Cl)cc1` (stereo not given) [MYCLOBUTANIL], the mortality stood at 7.5% in assay [2], 5.3% in assay [3], 5% in assay [4] and 17% in assay [5].

Values taken from ChEMBL document CHEMBL3046099, “Effect of reduced risk pesticides on greenhouse vegetable arthropod biological control agents” (2011).
